Measurements taken from patent US8133984B2, “Oligonucleotides comprising signalling pairs and hydrophobic nucleotides, stemless beacons, for detection of nucleic acids, methylation status and mutants of nucleic acids” (PENTABASE ApS, priority 2006, dated 2012).
Entries after “also recorded” stand apart in the source; their conditions may differ. {FAM} = fluorescein (FAM) fluorophore label; {BHQ1} = Black Hole Quencher 1

What was measured:
Format in all cases: binding
[1] = system: Bgal_WT_tar oligo target; assay: Affinity of stemless probes to single stranded oligo target (melt 25-90° C.); settings: for Signal (25° C.): fluorescence at 25° C., hybridised to oligo target; for Signal (25° C.) / Signal (90° C.): 280 mM NaCl, 20 mM Na2HPO4 buffer; for Signal (90° C.): fluorescence at 90° C.
Excerpt: This example illustrates how stemless beacons comprising hydrophobic modifications of the structure: X—Y-Q where X is a backbone monomer unit linked to the oligo by phosphordiester bonds and of the structure —O—CH2—CH2—O—, Y is a —CH2—O—CH2— linker and Q is 1′-pyrene, will have higher affinity towards a fully complementary target sequence than a probe not comprising said hydrophobic modifications.
It can be seen from FIG. 13 that all stemless beacons have the similar or higher affinity for the complementary oligo nucleotide target compared to the corresponding DNA. Furthermore it can be calculated that all of the stemless beacons presented in this example (exclusive probe—1) have a similar or higher signal-to-noise ratio than the DNA probe without hydrophobic modifications (signal at 25 degrees divided by signal at 90 degrees).

[2] = system: mismatched DNA target; assay: Melting temperature experiment (dissociation curve) of probe hybridised to mismatched DNA target; settings: for temperature at which the probe hybridises to its mismatched target: FIG. 3, negative derivative of dissociation curve, 4 mM MgCl2, 50 mM KCl, 10 mM TRIS-HCl, pH=8.0
Method: (§1) The measurement was done as a melting temperature experiment on a Mx3000, Stratagene Real-time PCR instrument in a 96-well plate. The measurements were done in a buffer solution reflecting the buffer solutions used in a normal Real-time PCR reaction. The buffer contained 4 mM MgCl2, 50 mM KCl, 10 mM TRIS-HCl, pH=8.0. 1 μL of the Stemless Beacon (5 pmol/μL) and 2 μL of the DNA target sequence (5 pmol/μL) and 22 μL of the buffer mentioned above. First the mixtures were heated to 95° C. for 1 min to denature the secondary structures followed by annealing of the duplexes at 35° C. and ramping up to 95° C. while measuring the signal for every degrees change. Results are shown in FIG. 2, and other details like the sequences of the Stemless Beacons can be seen in the legend to said Figure.
(§2) The Measurements were carried out as described in example 2 above. Result and sequence information can be found in FIG. 3 and in the legend to said figure. The results are shown as the first derivative of the signal against temperature.

[3] = system: matched DNA target; assay: Melting temperature experiment (dissociation curve) of probe hybridised to matched DNA target; settings: for difference between hybridisation temperature to matched and mismatched target: FIG. 3, matched versus mismatched target; for temperature at which the probe hybridises to its matched target: FIG. 3, negative derivative of dissociation curve, 4 mM MgCl2, 50 mM KCl, 10 mM TRIS-HCl, pH=8.0
Method: as §1, §2

[4] = system: nucleotide 2074 of human Andrenogen receptor, wild type (THP cDNA) and A→G mutant (LNCap cDNA); assay: End-point affinity measurements on FAM and HEX channel, SNP detection
Method: (§3) A test was setup to see if the used combination of probes would be able to distinguish between the wildtype and the A→G transition mutant. Measurements in this example were carried out on the Real-time PCR machine Rotorgene™ 3000 from Corbett Research.
(§4) In this experiment the mut. specific probe was added together with wt. specific probe in a homogenous assay. The label 1 means the inserted pseudonucleotide or hydrophobic nucleotide (Phosphoramidite of (S)-1-(4,4′-dimethoxytriphenylmethyloxy)-3-pyrenemethyloxy-2-propanol) comprising the hydrophobic, intercalating molecule pyrene (with the number XII from the description above). The label 2 means the inserted pseudonucleotide or hydrophobic nucleotide (Phosphoramidite of 3-(1-O-(4,4′-dimethoxytriphenylmethyl)-2-O-(2-cyanoethyl diisopropylamidophosphite)-1,2-butandiol)-4-N-(7,9-Dimethyl-3H-pyrido[3′,2′:4,5]thieno[3,2-d]pyrimidin-4-one)) (comprising the intercalating hydrophobic group with the number XXVI from the description above). FAM and Hex are fluorophores and BHQ1 is a quencher.
(§5) The template: 2 samples of each with cDNA extracted from either LNCap (mutant) and/or THP (wt) (6 samples overall).
(§6) The Real-Time PCR profile used is depicted in FIG. 14B.

[5] = system: nucleotide 2074 of human Andrenogen receptor, wild type (THP cDNA) and A→G mutant (LNCap cDNA); assay: Real-time PCR SNP detection, fluorescence read at 55, 61 and 65° C.
Method: as §3, §4, §5, §6

[6] = Example 2, FIG. 2, methylated/unmethylated bisulphite treated DNA target

5′-Fam A1C CGA CCC AGC GCC 1C BHQ1-3′ [Probe _2]
Signal (25° C.) [1]: 34.12
Signal (90° C.) [1]: 4.7

5′-Fam ACC G1A CCC AGC 1GC CC BHQ1-3′ [Probe _5]
Signal (25° C.) [1]: 50.57
Signal (90° C.) [1]: 7.81

5′-Fam ACC GA1 CCC AG1 CGC CC BHQ1-3′ [Probe _6]
Signal (25° C.) [1]: 77.01
Signal (90° C.) [1]: 12.85

5′-Fam ACC GAC 1CC A1G CGC CC BHQ1-3′ [Probe _7]
Signal (25° C.) [1]: 46.92
Signal (90° C.) [1]: 7.98

5′-Fam ACC GAC CCA GCG CCC BHQ1-3′ (DNA ACCGACCCAGCGCCC; reference probe without hydrophobic nucleotides, sugar not given here, further chemistry not given here) [Probe _ref (DNA), DNA probe without hydrophobic modifications, reference compound]
Signal (25° C.) [1]: 38.11
Signal (90° C.) [1]: 8.65
Signal-to-noise ([1]; signal at 25 degrees divided by signal at 90 degrees): 4.41

FAM-A2AAA2ATCCCG2CGA2ACT-BHQ1 (DNA ANAAANATCCCGNCGANACT; FAM, BHQ1, 4 hydrophobic pseudonucleotide insertions, chemistry not fully specified) [Stemless Beacon]
melting temperature of the probe against the mismatched target [2, 6]: 56 °C
melting temperature of the probe against the fully matched target [3, 6]: 67 °C
background fluorescence (fluorescence of unbound probe) compared to the Stemless DNA probe ([3]; FIG. 2, 35 to 95° C.): significantly reduced background fluorescence; also recorded: much lower

FAM-ATTTTAGGGCGTTTTTTTG-BHQ1 (DNA, 5' {FAM}, 3' {BHQ1}, backbone not given here) [reference compound]
temperature at which the probe hybridises to its mismatched target [2]: 57.1 °C
difference between hybridisation temperature to matched and mismatched target [3]: 7.8 °C
temperature at which the probe hybridises to its matched target [3]: 64.9 °C

FAM-T1CAAA1AGTGA1ACTG1AT-BHQ1 (DNA TNCAAANAGTGANACTGNAT; DNA probe with hydrophobic pseudonucleotide insertions denoted 1, structure not given here, further chemistry not given here) [wt specific probe, wild type specific probe; 1 = pyrene pseudonucleotide]
width of window of specific hybridisation ([4]; FAM channel): approximately 5 degree
binding of probe in real-time PCR ([5]; at 55° C.): binds to both the wild type target and the mutant
binding of probe in real-time PCR ([5]; at 61° C.): only a specific signal from wt probe is obtained
binding of probe in real-time PCR ([5]; at 65° C.): only binding to its specific target

FAM-T2AGG2GCGT2TTTT2T-BHQ1 (DNA TNAGGNGCGTNTTTTNT; FAM, BHQ1, intercalating pseudonucleotide insertions, further chemistry not given here) [SB, 2 = inserted pseudonucleotide comprising intercalating hydrophobic group XXVI]
temperature at which the probe hybridises to its mismatched target [2]: 49.9 °C
difference between hybridisation temperature to matched and mismatched target [3]: 13.8 °C
temperature at which the probe hybridises to its matched target [3]: 63.7 °C
specificity higher than Stemless DNA probe having the same affinity ([3]; measured as difference in affinity to a matched versus a mismatched target): 77%

HEX-2TCAAA2AGCGA2ACTG2AT-BHQ1 (DNA NTCAAANAGCGANACTGNAT; pseudonucleotide insertions denoted 2, identity not given here, further chemistry not given here) [mut. specific probe, mutant specific probe; 2 = pseudonucleotide with hydrophobic group XXVI]
width of window distinguishing fully complementary from single nucleotide mismatched target ([4]; HEX channel, at temperatures above 55° C.): at least 10 °C
binding of probe in real-time PCR ([5]; at 55° C.): hybridising specifically to its target
binding of probe in real-time PCR ([5]; at 61° C.): worked fine
binding of probe in real-time PCR ([5]; at 65° C.): no longer binding
